Target: T1, EP2 receptor (Homo sapiens, UniProt P43116)
T1 construct: SF295 glioblastoma cells express high endogenous EP2 and no EP4; host or cells: SF295 glioblastoma cells
Assay: hEP2 cAMP assay (SF295 glioblastoma cells, HTRF cAMP, PGE2 stimulation)
Format: cell-based
Settings: antagonistic activity
Method in brief: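 SF295 glioblastoma cells with endogenous EP2 and no EP4, in HBSS/HEPES/BSA with 2 mM IBMX, pre-incubated 45 min at room temperature with compound, then stimulated 30 min with 75 nM PGE2 (EC80). cAMP measured by HTRF; IC50 fitted from duplicate % cAMP versus DMSO control.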

T1 sequence (P43116 whole entry): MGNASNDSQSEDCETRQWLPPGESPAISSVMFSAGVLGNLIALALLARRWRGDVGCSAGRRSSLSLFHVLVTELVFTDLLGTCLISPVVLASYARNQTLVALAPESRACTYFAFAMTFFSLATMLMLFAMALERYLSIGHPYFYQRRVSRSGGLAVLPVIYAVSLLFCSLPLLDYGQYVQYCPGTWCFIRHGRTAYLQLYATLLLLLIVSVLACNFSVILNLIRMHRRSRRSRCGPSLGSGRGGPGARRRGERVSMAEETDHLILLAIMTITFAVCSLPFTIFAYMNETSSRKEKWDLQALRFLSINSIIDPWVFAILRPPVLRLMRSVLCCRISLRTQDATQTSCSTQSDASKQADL

Row | Structure (SMILES) | IC50 [nM]
1 | CCOc1cc(-c2cc(NCCc3c(C)sc4c(OC)ccc(F)c34)ncn2)ccc1C(=O)O [Example 55, 2-Ethoxy-4-{6-[2-(4-fluoro-7-methoxy-2-methyl-benzo[b]thiophen-3-yl)-ethylamino]-pyrimidin-4-yl}-benzoic acid] | 40
2 | CCOc1cc(-c2cc(NCCc3c(C)sc4c(C)c(F)ccc34)ncn2)ccc1C(=O)O [Example 62, 2-Ethoxy-4-{6-[2-(6-fluoro-2,7-dimethyl-benzo[b]thiophen-3-yl)-ethylamino]-pyrimidin-4-yl}-benzoic acid] | 14
3 | CCOc1cc(-c2cc(NCCc3c(C)sc4c(C)ccc(F)c34)ncn2)ccc1C(=O)O [Example 61, 2-Ethoxy-4-{6-[2-(4-fluoro-2,7-dimethyl-benzo[b]thiophen-3-yl)-ethylamino]-pyrimidin-4-yl}-benzoic acid] | 60
4 | CCOc1cc(-c2cc(NCCc3c(C)sc4c(OC)ccc(Cl)c34)ncn2)sc1C(=O)O [Example 30, 5-{6-[2-(4-Chloro-7-methoxy-2-methyl-benzo[b]thiophen-3-yl)-ethylamino]-pyrimidin-4-yl}-3-ethoxy-thiophene-2-carboxylic acid] | 8
5 | CCCSc1cc(-c2cc(NCCc3c(C)sc4c(C)cccc34)ncn2)ccc1C(=O)O [Example 87, 4-{6-[2-(2,7-Dimethyl-benzo[b]thiophen-3-yl)-ethylamino]-pyrimidin-4-yl}-2-propylsulfanyl-benzoic acid] | 15
6 | Cc1sc2c(C)cc(F)cc2c1CCNc1cc(-c2ccc(CC(=O)O)c(OC3CC3)c2)ncn1 [Example 196, (2-Cyclopropoxy-4-{6-[2-(5-fluoro-2,7-dimethyl-benzo[b]thiophen-3-yl)-ethylamino]-pyrimidin-4-yl}-phenyl)-acetic acid] | 50
7 | CCOc1cc(-c2cc(NCCc3c(Cl)sc4c(C)cc(F)cc34)ncn2)ccc1C(=O)O [Example 59, 4-{6-[2-(2-Chloro-5-fluoro-7-methyl-benzo[b]thiophen-3-yl)-ethylamino]-pyrimidin-4-yl}-2-ethoxy-benzoic acid] | 12
8 | CCOc1cc(-c2cc(NCCc3c(C)sc4c(OC)ccc(Cl)c34)ncn2)ccc1C(=O)O [Example 57, 4-{6-[2-(4-Chloro-7-methoxy-2-methyl-benzo[b]thiophen-3-yl)-ethylamino]-pyrimidin-4-yl}-2-ethoxy-benzoic acid] | 44
9 | Cc1sc2c(C)cc(F)cc2c1CCNc1cc(-c2ccc(C(=O)O)c(OCCO)c2)ncn1 [Example 86, 4-{6-[2-(5-fluoro-2,7-dimethyl-benzo[b]thiophen-3-yl)-ethylamino]-pyrimidin-4-yl}-2-(2-hydroxy-ethoxy)-benzoic acid] | 11
10 | CCOc1cc(-c2cc(NCCc3csc4ccccc34)ncn2)sc1C(=O)O [Example 33, 5-[6-(2-Benzo[b]thiophen-3-yl-ethylamino)-pyrimidin-4-yl]-3-ethoxy-thiophene-2-carboxylic acid] | 17
11 | CSc1cc(-c2cc(NCCc3c(C)sc4c(Cl)cc(F)cc34)ncn2)ccc1C(=O)O [Example 23, 4-{6-[2-(7-Chloro-5-fluoro-2-methyl-benzo[b]thiophen-3-yl)-ethylamino]-pyrimidin-4-yl}-2-methylsulfanyl-benzoic acid] | 27
12 | CCOc1cc(-c2cc(NCCc3c(C)sc4c(C)cccc34)ncn2)ccc1C(=O)O [Example 60, 4-{6-[2-(2,7-Dimethyl-benzo[b]thiophen-3-yl)-ethylamino]-pyrimidin-4-yl}-2-ethoxy-benzoic acid] | 15
13 | CSc1cc(-c2cc(NCCc3c(C)sc4c(Cl)ccc(Cl)c34)ncn2)ccc1C(=O)O [Example 20, 4-{6-[2-(4,7-Dichloro-2-methyl-benzo[b]thiophen-3-yl)-ethylamino]-pyrimidin-4-yl}-2-methylsulfanyl-benzoic acid] | 26
14 | CSc1cc(-c2cc(NCCc3c(C)sc4c(C)cccc34)ncn2)cc(F)c1C(=O)O [Example 47, 4-{6-[2-(2,7-Dimethyl-benzo[b]thiophen-3-yl)-ethylamino]-pyrimidin-4-yl}-2-fluoro-6-methylsulfanyl-benzoic acid] | 12
15 | Cc1oc2ccccc2c1CCNc1cc(-c2ccc(C(=O)O)c(SC(C)C)c2)ncn1 [Example 92, 2-Isopropylsulfanyl-4-{6-[2-(2-methyl-benzofuran-3-yl)-ethylamino]-pyrimidin-4-yl}-benzoic acid] | 6
16 | CCOc1cc(-c2cc(NCCc3c(C)oc4c(Cl)cccc34)ncn2)sc1C(=O)O [Example 35, 5-{6-[2-(7-Chloro-2-methyl-benzofuran-3-yl)-ethylamino]-pyrimidin-4-yl}-3-ethoxy-thiophene-2-carboxylic acid] | 2
17 | CCOc1cc(-c2cc(NCCc3c(C)sc4c(C)ccc(F)c34)ncn2)sc1C(=O)O [Example 25, 3-Ethoxy-5-{6-[2-(4-fluoro-2,7-dimethyl-benzo[b]thiophen-3-yl)-ethylamino]-pyrimidin-4-yl}-thiophene-2-carboxylic acid] | 8
18 | Cc1cc(-c2cc(NCCc3c(C)oc4c(C)cc(Cl)cc34)ncn2)sc1C(=O)O [Example 4, 5-{6-[2-(5-Chloro-2,7-dimethyl-benzofuran-3-yl)-ethylamino]-pyrimidin-4-yl}-3-methyl-thiophene-2-carboxylic acid] | 33
19 | CCc1oc2c(C)cc(F)cc2c1CCNc1cc(-c2ccc(C(=O)O)c(SC)c2)ncn1 [Example 22, 4-{6-[2-(2-Ethyl-5-fluoro-7-methyl-benzofuran-3-yl)-ethylamino]-pyrimidin-4-yl}-2-methylsulfanyl-benzoic acid] | 172
20 | CCOc1cc(-c2cc(NCCc3c(C)sc4c(C)cccc34)ncn2)sc1C(=O)O [Example 36, 5-{6-[2-(2,7-Dimethyl-benzo[b]thiophen-3-yl)-ethylamino]-pyrimidin-4-yl}-3-ethoxy-thiophene-2-carboxylic acid] | 4
21 | CCOc1cc(-c2cc(NCCc3c(C)sc4c(C)cc(F)cc34)ncn2)sc1CC(=O)O [Example 52, (3-Ethoxy-5-{6-[2-(5-fluoro-2,7-dimethyl-benzo[b]thiophen-3-yl)-ethylamino]-pyrimidin-4-yl}-thiophen-2-yl)-acetic acid] | 95

Continued, values first:

Row | IC50 [nM] | Structure (SMILES)
22 | 64 | CCOc1cc(-c2cc(NCCc3c(C)sc4c(Cl)ccc(Cl)c34)ncn2)ccc1C(=O)O [Example 63, 4-{6-[2-(4,7-Dichloro-2-methyl-benzo[b]thiophen-3-yl)-ethylamino]-pyrimidin-4-yl}-2-ethoxy-benzoic acid]
23 | 75 | CCOc1cc(-c2cc(NCCc3c(C)sc4c(C)cc(F)cc34)ncn2)ccc1-c1cc(O)no1 [Example 202, 5-(2-Ethoxy-4-{6-[2-(5-fluoro-2,7-dimethyl-benzo[b]thiophen-3-yl)-ethylamino]-pyrimidin-4-yl}-phenyl)-isoxazol-3-ol [tautomeric form: 5-(2-ethoxy-4-(6-((2-(5-fluoro-2,7-dimethylbenzo[b]thiophen-3-yl)ethyl)amino)pyrimidin-4-yl)phenyl)isoxazol-3(2H)-one]]
24 | 12 | CCOc1cc(-c2cc(NCCc3c(C)oc4c(OC)cc(Cl)cc34)ncn2)sc1C(=O)O [Example 38, 5-{6-[2-(5-Chloro-7-methoxy-2-methyl-benzofuran-3-yl)-ethylamino]-pyrimidin-4-yl}-3-ethoxy-thiophene-2-carboxylic acid]
25 | 101 | CCOc1cc(-c2cc(NCCc3c(C)sc4c(C)ccc(Cl)c34)ncn2)ccc1C(=O)O [Example 66, 4-{6-[2-(4-Chloro-2,7-dimethyl-benzo[b]thiophen-3-yl)-ethylamino]-pyrimidin-4-yl}-2-ethoxy-benzoic acid]
26 | 18 | Cc1cc(-c2cc(NCCc3c(C)sc4c(C)cccc34)ncn2)sc1C(=O)O [Example 3, 5-{6-[2-(2,7-Dimethyl-benzo[b]thiophen-3-yl)-ethylamino]-pyrimidin-4-yl}-3-methyl-thiophene-2-carboxylic acid]
27 | 77 | CCOc1cc(-c2cc(NCCc3c(C#N)sc4c(OC)cccc34)ncn2)ccc1C(=O)O [Example 54, 4-{6-[2-(2-Cyano-7-methoxy-benzo[b]thiophen-3-yl)-ethylamino]-pyrimidin-4-yl}-2-ethoxy-benzoic acid]
28 | 6 | CSc1cc(-c2cc(NCCc3c(C)sc4c(C)cccc34)ncn2)ccc1C(=O)O [Example 14, 4-{6-[2-(2,7-Dimethyl-benzo[b]thiophen-3-yl)-ethylamino]-pyrimidin-4-yl}-2-methylsulfanyl-benzoic acid]
29 | 8 | Cc1sc2c(C)cccc2c1CCNc1cc(-c2ccc3cc(C(=O)O)oc3c2)ncn1 [Example 77, 6-{6-[2-(2,7-Dimethyl-benzo[b]thiophen-3-yl)-ethylamino]-pyrimidin-4-yl}-benzofuran-2-carboxylic acid]
30 | 2 | CCOc1cc(-c2cc(NCCc3c(C)sc4c(C)cc(F)cc34)ncn2)sc1C(=O)O [Example 32, 3-Ethoxy-5-{6-[2-(5-fluoro-2,7-dimethyl-benzo[b]thiophen-3-yl)-ethylamino]-pyrimidin-4-yl}-thiophene-2-carboxylic acid]
31 | 74 | CCOc1cc(-c2cc(NCCc3c(C)oc4c(C)cc(F)cc34)ncn2)ccc1C(=O)O [Example 69, 2-Ethoxy-4-{6-[2-(5-fluoro-2,7-dimethyl-benzofuran-3-yl)-ethylamino]-pyrimidin-4-yl}-benzoic acid]
32 | 15 | CCOc1cc(-c2cc(NCCc3c(C)sc4c(Cl)cc(F)cc34)ncn2)ccc1C(=O)O [Example 65, 4-{6-[2-(7-Chloro-5-fluoro-2-methyl-benzo[b]thiophen-3-yl)-ethylamino]-pyrimidin-4-yl}-2-ethoxy-benzoic acid]
33 | 10 | CCOc1cc(-c2cc(NCCc3c(C)oc4c(Cl)cc(Cl)cc34)ncn2)ccc1C(=O)O [Example 71, 4-{6-[2-(5,7-Dichloro-2-methyl-benzofuran-3-yl)-ethylamino]-pyrimidin-4-yl}-2-ethoxy-benzoic acid]
